What all share (assay type): biochemical
One experiment deals with T1, human TOR (Homo sapiens, UniProt P42345).
T1 construct: FLAG
Kind of experiment: mTOR enzyme assay (DELFIA, His6-S6K substrate). The settings on record: read-out: mTOR Kinase Avg. IC50.

Another experiment addresses PI3K-alpha (Homo sapiens, UniProt P42336). Description: PI3K-alpha fluorescence polarization assay. The settings on record: read-out: PI3Kα Avg. IC50. (In general: Polarisation of emitted light reports the rotation of a fluorescent probe.)
Another experiment addresses PI3K-gamma (Homo sapiens, UniProt P48736). Description: PI3K-gamma fluorescence polarization assay. The settings on record: PI3Kγ Avg. IC50. An outline of the steps: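 Enzyme 5 ng; substrate diC8-PI(4,5)P2 2.5 μM; ATP 25 μM; 5 mM HEPES pH 7, 2.5 mM MgCl2; DMSO ≤2%; 1 h, 25° C. Quench 10 mM EDTA. Detect with GRP1 PH domain 100 nM + TMR-IP4 probe 5 nM by polarization.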

PI3K-gamma, sequence (P48736 whole entry, species assumed, the tested form may be a part): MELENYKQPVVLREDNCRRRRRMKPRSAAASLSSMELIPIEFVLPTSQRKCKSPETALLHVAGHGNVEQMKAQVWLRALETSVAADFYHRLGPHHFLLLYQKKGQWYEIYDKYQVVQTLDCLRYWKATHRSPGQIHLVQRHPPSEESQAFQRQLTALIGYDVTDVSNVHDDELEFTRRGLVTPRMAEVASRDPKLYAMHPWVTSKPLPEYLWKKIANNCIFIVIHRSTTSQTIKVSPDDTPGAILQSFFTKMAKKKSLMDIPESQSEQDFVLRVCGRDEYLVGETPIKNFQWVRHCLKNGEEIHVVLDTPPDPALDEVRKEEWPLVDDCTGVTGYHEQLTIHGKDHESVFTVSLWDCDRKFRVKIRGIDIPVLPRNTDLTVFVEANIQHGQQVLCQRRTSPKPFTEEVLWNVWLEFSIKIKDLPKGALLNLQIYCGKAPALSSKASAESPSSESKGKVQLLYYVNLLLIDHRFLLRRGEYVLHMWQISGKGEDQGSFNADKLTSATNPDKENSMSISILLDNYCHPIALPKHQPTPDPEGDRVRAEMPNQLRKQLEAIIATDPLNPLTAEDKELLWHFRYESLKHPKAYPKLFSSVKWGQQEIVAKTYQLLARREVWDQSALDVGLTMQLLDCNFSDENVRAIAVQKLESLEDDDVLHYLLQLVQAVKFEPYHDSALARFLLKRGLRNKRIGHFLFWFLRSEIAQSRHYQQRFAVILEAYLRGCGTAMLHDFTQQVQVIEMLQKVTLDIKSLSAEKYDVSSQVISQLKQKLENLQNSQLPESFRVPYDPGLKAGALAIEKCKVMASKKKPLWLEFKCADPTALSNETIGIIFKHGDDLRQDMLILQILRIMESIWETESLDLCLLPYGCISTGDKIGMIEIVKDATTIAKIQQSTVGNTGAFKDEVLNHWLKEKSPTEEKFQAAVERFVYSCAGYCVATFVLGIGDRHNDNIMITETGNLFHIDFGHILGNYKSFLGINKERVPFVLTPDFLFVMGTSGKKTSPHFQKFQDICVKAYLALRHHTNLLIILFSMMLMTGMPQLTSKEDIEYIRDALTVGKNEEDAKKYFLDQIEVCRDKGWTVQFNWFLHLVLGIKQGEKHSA
PI3K-alpha, sequence (P42336 whole entry, species assumed, the tested form may be a part): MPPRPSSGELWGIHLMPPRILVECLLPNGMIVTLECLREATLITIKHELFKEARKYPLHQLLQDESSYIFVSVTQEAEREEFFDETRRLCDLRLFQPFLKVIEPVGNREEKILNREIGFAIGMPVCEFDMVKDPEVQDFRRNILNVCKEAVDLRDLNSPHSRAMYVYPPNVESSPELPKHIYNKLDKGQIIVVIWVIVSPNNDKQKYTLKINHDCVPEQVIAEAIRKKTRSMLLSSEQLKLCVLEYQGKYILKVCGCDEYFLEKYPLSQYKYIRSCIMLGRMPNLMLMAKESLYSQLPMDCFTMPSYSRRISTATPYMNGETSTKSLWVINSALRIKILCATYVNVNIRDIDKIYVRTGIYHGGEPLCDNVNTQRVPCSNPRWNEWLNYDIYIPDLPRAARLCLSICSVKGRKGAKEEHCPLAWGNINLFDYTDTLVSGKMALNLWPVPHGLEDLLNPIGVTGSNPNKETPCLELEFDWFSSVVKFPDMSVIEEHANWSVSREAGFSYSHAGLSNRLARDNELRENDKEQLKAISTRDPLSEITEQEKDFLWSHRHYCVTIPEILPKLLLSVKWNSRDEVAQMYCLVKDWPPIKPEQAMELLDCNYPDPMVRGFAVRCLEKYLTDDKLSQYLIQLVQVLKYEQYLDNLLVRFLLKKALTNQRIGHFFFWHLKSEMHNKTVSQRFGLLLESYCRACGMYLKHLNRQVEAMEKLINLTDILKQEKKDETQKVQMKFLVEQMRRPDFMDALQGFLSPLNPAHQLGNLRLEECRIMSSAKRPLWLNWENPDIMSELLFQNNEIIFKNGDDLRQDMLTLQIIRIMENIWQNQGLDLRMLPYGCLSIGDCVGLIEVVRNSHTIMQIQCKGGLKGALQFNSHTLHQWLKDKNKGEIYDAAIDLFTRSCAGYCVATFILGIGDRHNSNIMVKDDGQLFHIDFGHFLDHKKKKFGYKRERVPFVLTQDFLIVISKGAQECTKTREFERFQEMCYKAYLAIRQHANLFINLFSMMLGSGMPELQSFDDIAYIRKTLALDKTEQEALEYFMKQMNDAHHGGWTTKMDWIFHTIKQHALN
PI3K-alpha, sequence (P27986 whole entry partner, species assumed, the tested form may be a part): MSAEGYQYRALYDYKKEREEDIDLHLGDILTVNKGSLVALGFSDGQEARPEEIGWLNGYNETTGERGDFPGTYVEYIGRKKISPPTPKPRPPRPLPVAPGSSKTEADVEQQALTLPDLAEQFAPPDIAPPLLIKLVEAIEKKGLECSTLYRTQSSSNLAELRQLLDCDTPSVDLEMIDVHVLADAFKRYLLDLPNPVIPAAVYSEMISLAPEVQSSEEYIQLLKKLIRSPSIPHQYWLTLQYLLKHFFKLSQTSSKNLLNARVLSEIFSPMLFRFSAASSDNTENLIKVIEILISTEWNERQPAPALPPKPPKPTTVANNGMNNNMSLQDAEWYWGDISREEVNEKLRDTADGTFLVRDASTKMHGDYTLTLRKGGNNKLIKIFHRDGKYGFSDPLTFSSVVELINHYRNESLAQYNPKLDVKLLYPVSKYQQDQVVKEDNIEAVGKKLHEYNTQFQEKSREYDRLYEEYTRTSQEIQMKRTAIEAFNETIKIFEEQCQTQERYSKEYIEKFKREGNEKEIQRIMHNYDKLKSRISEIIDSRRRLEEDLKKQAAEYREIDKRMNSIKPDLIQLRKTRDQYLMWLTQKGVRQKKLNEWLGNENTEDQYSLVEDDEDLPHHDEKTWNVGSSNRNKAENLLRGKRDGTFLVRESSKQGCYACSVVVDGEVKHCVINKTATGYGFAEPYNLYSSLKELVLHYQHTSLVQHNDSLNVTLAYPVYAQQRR

Usually IC50 stands for the concentration that gives 50% inhibition. Regarding `O=C1C(=Cc2c(-c3cccc(O)c3)[nH]c3ccccc23)Oc2cc(O)cc(O)c21` [Example 205, 4,6-dihydroxy-2-{[2-(3-hydroxyphenyl)-1H-indol-3-yl]methylene}-1-benzofuran-3(2H)-one], the IC50 at human TOR was determined as 110 nM; at PI3K-alpha, 479 nM; on PI3K-gamma, 2370 nM.
In the same order, the values of `O=C1C(=Cc2c(-c3ccc(O)cc3)[nH]c3ccccc23)Oc2cc(O)cc(O)c21` [Example 206, 4,6-dihydroxy-2-{[2-(4-hydroxyphenyl)-1H-indol-3-yl]methylene}-1-benzofuran-3(2H)-one] are 65 nM, 573 nM and 1050 nM.
In the same order, the values of `O=C1C(=Cc2c(-c3cccc(F)c3)[nH]c3ccccc23)Oc2cc(O)cc(O)c21` [Example 210, 2-{[2-(3-fluorophenyl)-1H-indol-3-yl]methylene}-4,6-dihydroxy-1-benzofuran-3(2H)-one] are 190 nM, 674 nM and 1480 nM.
The matching figures for `CCn1c(-c2ccccc2)c(C=C2Oc3cc(O)cc(O)c3C2=O)c2ccccc21` [Example 213, 2-[(1-ethyl-2-phenyl-1H-indol-3-yl)methylene]-4,6-dihydroxy-1-benzofuran-3(2H)-one]: 170 nM, 770 nM and 2650 nM.
Turning to `Cc1[nH]c2ccc(Cl)cc2c1C=C1Oc2cc(O)cc(O)c2C1=O` [Example 215, 2-[(5-chloro-2-methyl-1H-indol-3-yl)methylene]-4,6-dihydroxy-1-benzofuran-3(2H)-one], the IC50 is 290 nM at human TOR, 264 nM at PI3K-alpha and 2610 nM on PI3K-gamma.
In the case of `Cn1c(-c2ccccn2)c(C=C2Oc3cc(O)cc(O)c3C2=O)c2ccccc21` [Example 223, 4,6-dihydroxy-2-[(1-methyl-2-pyridin-2-yl-1H-indol-3-yl)methylene]-1-benzofuran-3(2H)-one], the IC50 at human TOR is 60 nM; on PI3K-alpha it was 3660 nM; on PI3K-gamma it was more than 10000 nM.
With `N#CCCCCn1c(-c2ccccc2)c(C=C2Oc3cc(O)cc(O)c3C2=O)c2ccccc21` [Example 224, 5-{3-[(4,6-dihydroxy-3-oxo-1-benzofuran-2(3H)-ylidene)methyl]-2-phenyl-1H-indol-1-yl}pentanenitrile], the IC50 on human TOR was 480 nM; at PI3K-alpha, 751 nM; against PI3K-gamma, more than 10000 nM.
In the same order, the values of `N#CCCCCCn1c(-c2ccccc2)c(C=C2Oc3cc(O)cc(O)c3C2=O)c2ccccc21` [Example 225, 6-{3-[(4,6-dihydroxy-3-oxo-1-benzofuran-2(3H)-ylidene)methyl]-2-phenyl-1H-indol-1-yl}hexanenitrile] are 700 nM, 968 nM and more than 10000 nM.
In the same order, the values of `N#CCCCn1c(-c2cccnc2)c(C=C2Oc3cc(O)cc(O)c3C2=O)c2ccccc21` [Example 226, 4-{3-[(4,6-dihydroxy-3-oxo-1-benzofuran-2(3H)-ylidene)methyl]-2-pyridin-3-yl-1H-indol-1-yl}butanenitrile] are 670 nM, 1650 nM and more than 10000 nM.
In the same order, the values of `Cn1cc(C=C2Oc3cc(O)cc(O)c3C2=O)c2cc(F)ccc21` [Example 227, 2-[(5-fluoro-1-methyl-1H-indol-3-yl)methylene]-4,6-dihydroxy-1-benzofuran-3(2H)-one] are 3800 nM, 757 nM and 7510 nM.
As to `Cn1cc(C=C2Oc3cc(O)cc(O)c3C2=O)c2cc([N+](=O)[O-])ccc21` [Example 228, 4,6-dihydroxy-2-[(1-methyl-5-nitro-1H-indol-3-yl)methylene]-1-benzofuran-3(2H)-one], the IC50 on human TOR is 980 nM; on PI3K-alpha, 3570 nM; on PI3K-gamma, more than 10000 nM.
On to `Cn1cc(C=C2Oc3cc(O)cc(O)c3C2=O)c2cccc([N+](=O)[O-])c21` [Example 229, 4,6-dihydroxy-2-[(1-methyl-7-nitro-1H-indol-3-yl)methylene]-1-benzofuran-3(2H)-one], for which the IC50 at human TOR was 8300 nM; on PI3K-alpha, 735 nM; at PI3K-gamma, more than 10000 nM.
As to `N#CCCCn1cc(C=C2Oc3cc(O)cc(O)c3C2=O)c2c(Br)cccc21` [Example 230, 4-{4-bromo-3-[(4,6-dihydroxy-3-oxo-1-benzofuran-2(3H)-ylidene)methyl]-1H-indol-1-yl}butanenitrile], the results for the IC50 at human TOR, at PI3K-alpha and on PI3K-gamma were 3400 nM, 2020 nM and more than 10000 nM, respectively.
In the same order, the values of `CCc1cccc2c(C=C3Oc4cc(O)cc(O)c4C3=O)cn(CCCC#N)c12` [Example 232, 4-{3-[(4,6-dihydroxy-3-oxo-1-benzofuran-2(3H)-ylidene)methyl]-7-ethyl-1H-indol-1-yl}butanenitrile] are more than 20000 nM, 610 nM and 6000 nM.
In the case of `Cc1c(C=C2Oc3cc(O)cc(O)c3C2=O)c2cc(Cl)ccc2n1CCCC#N` [Example 238, 4-{5-chloro-3-[(4,6-dihydroxy-3-oxo-1-benzofuran-2(3H)-ylidene)methyl]-2-methyl-1H-indol-1-yl}butanenitrile], the results for the IC50 at human TOR, on PI3K-alpha and at PI3K-gamma were 360 nM, 288 nM and 2820 nM, respectively.
Regarding `O=C1C(=Cc2c[nH]c3c(OCc4ccccc4)cccc23)Oc2cc(O)cc(O)c21` [Example 242, 2-{[7-(benzyloxy)-1H-indol-3-yl]methylene}-4,6-dihydroxy-1-benzofuran-3(2H)-one], the IC50 was more than 20000 nM at human TOR, 1000 nM at PI3K-alpha and more than 10000 nM against PI3K-gamma.
`O=C1C(=Cc2c[nH]c3c(O)cccc23)Oc2cc(O)cc(O)c21` [Example 246, 4,6-dihydroxy-2-[(7-hydroxy-1H-indol-3-yl)methylene]-1-benzofuran-3(2H)-one]: the IC50 was 17000 nM on human TOR, 1030 nM at PI3K-alpha and more than 10000 nM against PI3K-gamma.
Take `Cn1cc(C=C2Oc3cc(O)cc(O)c3C2=O)c2cc(Br)ccc21` [Example 248, 2-[(5-bromo-1-methyl-1H-indol-3-yl)methylene]-4,6-dihydroxy-1-benzofuran-3(2H)-one]: the IC50 was more than 20000 nM on human TOR, 1040 nM on PI3K-alpha and more than 10000 nM on PI3K-gamma.
In the same order, the values of `N#CCCCn1cc(C=C2Oc3cc(O)cc(O)c3C2=O)c2c(O)cccc21` [Example 257, 4-{3-[(4,6-dihydroxy-3-oxo-1-benzofuran-2(3H)-ylidene)methyl]-4-hydroxy-1H-indol-1-yl}butanenitrile] are 12000 nM, 180 nM and 2240 nM.
The matching figures for `O=C1C(=Cc2c[nH]c3cccc(-c4ccccc4)c23)Oc2cc(O)cc(O)c21` [Example 269, 4,6-dihydroxy-2-[(4-phenyl-1H-indol-3-yl)methylene]-1-benzofuran-3(2H)-one]: 1060 nM, 1640 nM and 2210 nM.
In the case of `Cn1cc(/C=C2\Oc3cc(O)cc(O)c3C2=O)c2c(-c3ccc(-c4ccc(CN)cc4)cc3)cccc21` [Example 300, (2Z)-2-({4-[4′-(Aminomethyl)biphenyl-4-yl]-1-methyl-1H-indol-3-yl}methylene)-4,6-dihydroxy-1-benzofuran-3(2H)-one], the results for the IC50 at human TOR, at PI3K-alpha and against PI3K-gamma were 132 nM, 2860 nM and 9500 nM, respectively.
In the same order, the values of `CN(C)Cc1ccc(-c2ccc(-c3cccc4c3c(/C=C3\Oc5cc(O)cc(O)c5C3=O)cn4C)cc2)cc1` [Example 301, (2Z)-2-[(4-{4′-[(Dimethylamino)methyl]biphenyl-4-yl}-1-methyl-1H-indol-3-yl)methylene]-4,6-dihydroxy-1-benzofuran-3(2H)-one] are 125 nM, 1230 nM and 2310 nM.
The matching figures for `COc1ccc2c(c1)c(/C=C1\Oc3cc(O)cc(O)c3C1=O)c(C(=O)N(C)C)n2CCN1CCC(O)CC1` [Example 311, 3-[(Z)-(4,6-Dihydroxy-3-oxo-1-benzofuran-2(3H)-ylidene)methyl]-1-[2-(4-hydroxypiperidin-1-yl)ethyl]-5-methoxy-N,N-dimethyl-1H-indole-2-carboxamide]: 88.5 nM, 8 nM and 144 nM.
With `COc1ccc2c(c1)c(/C=C1\Oc3cc(O)cc(O)c3C1=O)cn2CCn1ccnc1` [Example 312, (2Z)-4,6-Dihydroxy-2-({1-[2-(1H-imidazol-1-yl)ethyl]-5-methoxy-1H-indol-3-yl}methylene)-1-benzofuran-3(2H)-one], the values for the IC50 on human TOR, on PI3K-alpha and against PI3K-gamma were 152 nM, 9.5 nM and 81.5 nM, respectively.
In the same order, the values of `COc1ccc2c(c1)c(/C=C1\Oc3cc(O)cc(O)c3C1=O)c(C1CC1)n2CCO` [Example 313, (2Z)-2-{[2-Cyclopropyl-1-(2-hydroxyethyl)-5-methoxy-1H-indol-3-yl]methylene}-4,6-dihydroxy-1-benzofuran-3(2H)-one] are 0.53 nM, 3 nM and 16.5 nM.
In the same order, the values of `COc1ccc2c(c1)c(/C=C1\Oc3cc(O)cc(O)c3C1=O)c(C(=O)N(C)C)n2CCn1ccnc1` [Example 314, 3-[(Z)-(4,6-Dihydroxy-3-oxo-1-benzofuran-2(3H)-ylidene)methyl]-1-[2-(1H-imidazol-1-yl)ethyl]-5-methoxy-N,N-dimethyl-1H-indole-2-carboxamide] are 155 nM, 29 nM and 116 nM.

(Values after patent publication US20090311217A1, “3-SUBSTITUTED-1H-INDOLE COMPOUNDS, THEIR USE AS MTOR KINASE AND PI3 KINASE INHIBITORS, AND THEIR SYNTHESES” (priority 2008, published 2009).)
